{"source": "patent US9884868B2", "about": "“TGF-beta inhibitors” (Rigel Pharmaceuticals, Inc., priority 2015, dated 2018)", "key": {"[1]": {"tested_on": "TGF-β signaling (p-SMAD-3 (Ser423/425))", "experiment": "AlphaScreen SureFire SMAD3 (p-Ser423/425) assay, TGF-β-stimulated cells (TGF-β pSMAD (MPC-11))", "assay_type": "cell-based", "conditions": "pSMAD3 readout, read-out: TGF-β (inhibition of TGF-β signaling"}, "[2]": {"tested_on": "GDF8 signaling (p-SMAD-3 (Ser423/425))", "experiment": "AlphaScreen SureFire SMAD3 (p-Ser423/425) assay, GDF8-stimulated cells (GDF pSMAD (MPC11))", "assay_type": "cell-based", "conditions": "pSMAD3 readout, read-out: GDF8 (inhibition of GDF8 signaling"}, "[3]": {"molecular_target": "HIS-TGF-βR2 WT (Homo sapiens (Human), UniProt P37173)", "sequence (P37173 23-567)": "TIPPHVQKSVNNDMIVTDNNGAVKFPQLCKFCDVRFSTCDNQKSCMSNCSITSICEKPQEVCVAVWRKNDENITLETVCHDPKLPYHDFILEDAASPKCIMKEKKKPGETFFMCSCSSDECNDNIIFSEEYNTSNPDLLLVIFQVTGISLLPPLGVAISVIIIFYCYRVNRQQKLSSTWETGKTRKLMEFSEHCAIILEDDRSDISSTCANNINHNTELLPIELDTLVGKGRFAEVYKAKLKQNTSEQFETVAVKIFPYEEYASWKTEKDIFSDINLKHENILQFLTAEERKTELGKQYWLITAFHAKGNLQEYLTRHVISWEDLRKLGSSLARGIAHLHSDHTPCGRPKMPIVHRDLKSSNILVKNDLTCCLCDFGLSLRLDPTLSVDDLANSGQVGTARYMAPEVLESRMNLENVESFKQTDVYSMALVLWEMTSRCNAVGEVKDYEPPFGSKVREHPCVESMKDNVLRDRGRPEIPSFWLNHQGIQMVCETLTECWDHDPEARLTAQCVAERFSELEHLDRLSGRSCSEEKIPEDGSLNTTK", "experiment": "HTRF probe displacement assay with HIS-TGF-βR2 WT", "conditions": "read-out: TGFBr2 IC50; HTRF probe displacement, 1 nM HIS-TGF-βR2 WT, 1 hour at room temperature"}, "[4]": {"molecular_target": "HIS-TGF-βR1 T204D (Homo sapiens (Human), UniProt P36897, T204D)", "sequence (P36897 34-503 T204D)": "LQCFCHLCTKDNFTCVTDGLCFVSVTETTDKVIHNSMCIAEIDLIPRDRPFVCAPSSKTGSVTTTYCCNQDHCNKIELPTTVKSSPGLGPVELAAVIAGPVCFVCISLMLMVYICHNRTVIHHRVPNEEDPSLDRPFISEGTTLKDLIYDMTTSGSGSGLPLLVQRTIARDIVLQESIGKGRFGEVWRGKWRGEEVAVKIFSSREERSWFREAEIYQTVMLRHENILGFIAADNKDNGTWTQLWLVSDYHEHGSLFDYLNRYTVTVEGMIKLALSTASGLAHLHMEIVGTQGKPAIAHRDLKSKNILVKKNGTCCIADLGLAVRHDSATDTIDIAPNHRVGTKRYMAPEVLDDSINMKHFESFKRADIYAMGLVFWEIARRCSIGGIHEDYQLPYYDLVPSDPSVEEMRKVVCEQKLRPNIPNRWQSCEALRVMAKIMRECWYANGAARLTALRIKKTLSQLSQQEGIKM", "experiment": "HTRF probe displacement assay with HIS-TGF-βR1 T204D", "conditions": "read-out: TGFbr1 IC50; HTRF probe displacement, 1 nM HIS-TGF-βR1 T204D, 1 hour at room temperature"}}, "data": [{"compound": "Cc1cc(-c2ncn(C)c2-c2ccc3cn[nH]c3c2)ccc1F", "note": "[Compound 5, 6-(4-(4-Fluoro-3-methylphenyl)-1-methyl-1H-imidazol-5-yl)-1H-indazole]", "values": [{"measurement": "IC50", "setting": "[1]", "result": 20, "unit": "nM"}, {"measurement": "IC50", "setting": "[2]", "result": 10, "unit": "nM"}]}, {"compound": "CCc1nc(-c2cc(C)cc(F)c2)c(-c2ccc3[nH]ncc3c2)[nH]1", "note": "[Compound 142, 5-(2-Ethyl-4-(3-fluoro-5-methylphenyl)-1H-imidazol-5-yl)-1H-indazole]", "values": [{"measurement": "IC50", "setting": "[1]", "result": 4390, "unit": "nM"}, {"measurement": "IC50", "setting": "[2]", "result": 670, "unit": "nM"}]}, {"compound": "5-(benzo[d]thiazol-6-yl)-4-(3-chlorophenyl)thiazol-2-amine [Compound 166]", "values": [{"measurement": "IC50", "setting": "[2]", "result": 70.2, "unit": "nM"}]}, {"compound": "Cc1cc(-c2ncn(C)c2-c2ccc3cn[nH]c3c2)ccc1F", "note": "[Compound 7, 6-(4-(4-Fluoro-3-methylphenyl)-1-methyl-1H-imidazol-5-yl)-1H-indazole]", "values": [{"measurement": "IC50", "setting": "[1]", "result": 150, "unit": "nM"}, {"measurement": "IC50", "setting": "[2]", "result": 40, "unit": "nM"}]}, {"compound": "N#Cc1cnc2ccc(-c3c(-c4ccc(F)c(Cl)c4)ncn3C3CC(F)(F)C3)cn12", "note": "[99′, 6-(4-(3-chloro-4-fluorophenyl)-1-(3,3-difluorocyclobutyl)-1H-imidazol-5-yl)imidazo[1,2-a]pyridine-3-carbonitrile]", "values": [{"measurement": "IC50", "setting": "[3]", "result": "> 15000", "unit": "nM"}, {"measurement": "IC50", "setting": "[4]", "result": 65.7, "unit": "nM"}]}, {"compound": "NC(=O)c1cnc2ccc(-c3c(-c4ccc(F)cc4)ncn3C3CCC(F)(F)C3)nn12", "note": "(stereo not drawn) [108′, 6-(1-(3,3-difluorocyclopentyl)-4-(4-fluorophenyl)-1H-imidazol-5-yl)imidazo[1,2-b]pyridazine-3-carboxamide]", "values": [{"measurement": "IC50", "setting": "[3]", "result": "> 15000", "unit": "nM"}, {"measurement": "IC50", "setting": "[4]", "result": 2.1, "unit": "nM"}]}, {"compound": "CC(C)(C)NC(=O)N1CC(n2cnc(-c3ccc(F)cc3)c2-c2ccc3ncc(C(N)=O)n3n2)C1", "note": "[Example 195′, 6-(1-(1-(tert-butylcarbamoyl)azetidin-3-yl)-4-(4-fluorophenyl)-1H-imidazol-5-yl)imidazo[1,2-b]pyridazine-3-carboxamide]", "values": [{"measurement": "IC50", "setting": "[3]", "result": "> 15000", "unit": "nM"}, {"measurement": "IC50", "setting": "[4]", "result": 436, "unit": "nM"}]}, {"compound": "COC(=O)N1CCn2c(nc(-c3ccc(F)cc3)c2-c2ccc3ncc(C(N)=O)n3c2)C1", "note": "[Example 291′, methyl 3-(3-carbamoylimidazo[1,2-a]pyridin-6-yl)-2-(4-fluorophenyl)-5,6-dihydroimidazo[1,2-a]pyrazine-7(8H)-carboxylate]", "values": [{"measurement": "IC50", "setting": "[3]", "result": "> 15000", "unit": "nM"}, {"measurement": "IC50", "setting": "[4]", "result": 30.5, "unit": "nM"}]}, {"compound": "CC(=O)NCc1cnc2ccc(-c3c(-c4ccc(F)cc4)ncn3CC(F)F)nn12", "note": "[Example 197′, N-((6-(1-(2,2-difluoroethyl)-4-(4-fluorophenyl)-1H-imidazol-5-yl)imidazo[1,2-b]pyridazin-3-yl)methyl)acetamide]", "values": [{"measurement": "IC50", "setting": "[3]", "result": "> 15000", "unit": "nM"}, {"measurement": "IC50", "setting": "[4]", "result": 11.9, "unit": "nM"}]}, {"compound": "Fc1ccc(-c2ncn(CC(F)F)c2-c2ccc3ncc(CNCC(F)F)n3c2)cc1", "note": "[Example 275′, N-((6-(1-(2,2-difluoroethyl)-4-(4-fluorophenyl)-1H-imidazol-5-yl)imidazo[1,2-a]pyridin-3-yl)methyl)-2,2-difluoroethanamine]", "values": [{"measurement": "IC50", "setting": "[3]", "result": "> 15000", "unit": "nM"}, {"measurement": "IC50", "setting": "[4]", "result": 121, "unit": "nM"}]}, {"compound": "CC(=O)N1CC(n2cnc(-c3ccc(F)cc3)c2-c2ccc3ncc(C#N)n3n2)C1", "note": "[Example 191′, 6-(1-(1-acetylazetidin-3-yl)-4-(4-fluorophenyl)-1H-imidazol-5-yl)imidazo[1,2-b]pyridazine-3-carbonitrile]", "values": [{"measurement": "IC50", "setting": "[3]", "result": "> 15000", "unit": "nM"}, {"measurement": "IC50", "setting": "[4]", "result": 72.7, "unit": "nM"}]}]}
